Laboratory results taken from patent publication US10183944B2 (Asana Biosciences, LLC, priority 2011, dated 2019).
Read-outs that look alike come from different tables or passages of the source.

Key:
RBL2H3 cells = assay: Degranulation assay: β-hexosaminidase release during immune complex mediated degranulation; assay type: cell-based, rat
Outline: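 RBL2H3 cells sensitized overnight (or 24 h) with anti-DNP rat IgE, pretreated 15 min with compounds in 0.5% DMSO, then challenged with DNP-BSA for 45–60 min. β-Hexosaminidase in supernatant read fluorometrically (Ex 355/Em 460 nm) with β-NAG substrate, 30 min RT; % release/inhibition calculated.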

[1] = target: Syk (356-635 amino acids) catalytic domain (Homo sapiens (Human), UniProt P43405); assay: Inhibition of enzymatic Syk kinase activity (radiometric); assay type: biochemical
Outline: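 Human Syk (356-635) kinase domain (0.035–7.5 ng/reaction) preincubated with compound 30 minutes at room temperature, then reacted with pG4T substrate, 100 μM ATP (stock) and γ-32P-ATP for 10 minutes at 30° C. Reaction stopped with HCl/ATP, spotted on P81 paper, washed and counted by scintillation. Percent inhibition versus no-compound counts.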

JAK2 = JAK2 (Homo sapiens (Human), UniProt O60674); assay: Inhibition of enzymatic JAK2 kinase activity (TR-FRET); assay type: biochemical
Outline: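 Enzyme preincubated with compound 30 min at RT, then Ulight-poly-GT substrate and ATP added for 60 min at RT. EDTA stop, Eu-antiphosphotyrosine antibody; TR-FRET ratio 665/615 nm (ex 340 nm), blank-corrected; % inhibition versus positive control.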

[2] = Rattus norvegicus, RBL-2H3, 1 μM, Assay Protocol B (96 well format), read-out: Degranulation % inhibition at 1 μM
[3] = Rattus norvegicus, RBL-2H3, Assay Protocol B (96 well format), read-out: Degranulation EC50

JAK2, sequence (O60674 808-1132): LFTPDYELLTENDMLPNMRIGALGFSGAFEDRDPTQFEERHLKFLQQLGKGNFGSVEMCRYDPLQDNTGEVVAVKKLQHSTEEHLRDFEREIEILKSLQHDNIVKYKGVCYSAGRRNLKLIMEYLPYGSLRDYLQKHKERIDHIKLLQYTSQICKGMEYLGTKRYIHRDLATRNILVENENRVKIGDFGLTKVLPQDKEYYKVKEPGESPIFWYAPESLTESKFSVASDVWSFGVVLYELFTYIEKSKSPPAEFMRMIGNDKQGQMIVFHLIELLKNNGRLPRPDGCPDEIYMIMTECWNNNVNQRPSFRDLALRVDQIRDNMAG

EC50 (RBL2H3 cells; [3])	IC50 ([1]; read-out: IC50 Syk)	IC50 (JAK2; read-out: IC50 JAK)	EC50 (RBL2H3 cells; Assay Protocol B (96 well format), read-out: Degranulation EC50)	Structure (SMILES)	inhibition at 1 µM (RBL2H3 cells; [2])	inhibition at 1 µM (RBL2H3 cells; Rattus norvegicus, RBL-2H3, read-out: Degranulation % inhibition at 1 μM)	EC50 (RBL2H3 cells; Rattus norvegicus, RBL-2H3, read-out: Degranulation EC50 (nM))	IC50 [1]	IC50 (JAK2)	Degranulation % inhibition at 1 μM (RBL2H3 cells; 1 μM, Assay Protocol B (96 well format))
29 nM	< 10 nM	< 50 nM		CC1(O)CCN(CCOc2ccc(Nc3nc(N4CCC(CC#N)CC4)nc4cn[nH]c(=O)c34)cc2)CC1 [Example 185, 2-(1-(4-((4-(2-(4-hydroxy-4-methylpiperidin-1-yl)ethoxy)phenyl)amino)-5-oxo-5,6-dihydropyrimido[4,5-d]pyridazin-2-yl)piperidin-4-yl)acetonitrile]	83%					
27 nM	< 10 nM	< 10 nM		O=c1[nH]ncc2nc(N3CCCCCC3)nc(Nc3ccc(N4CCNCC4)cc3)c12 [Example 192, 2-(azepan-1-yl)-4-((4-(piperazin-1-yl)phenyl)amino)pyrimido[4,5-d]pyridazin-5(6H)-one]	82%					
66 nM	< 10 nM	< 50 nM		N#CCC1CCN(c2nc(Nc3ccc(OCCN)cc3)c3c(=O)[nH]ncc3n2)CC1 [Example 200, 2-(1-(4-((4-(2-aminoethoxy)phenyl)amino)-5-oxo-5,6-dihydropyrimido[4,5-d]pyridazin-2-yl)piperidin-4-yl) acetonitrile]	71%					
14 nM	< 10 nM	< 10 nM		O=C(O)CCN1CCN(c2ccc(Nc3nc(N4CCCCCC4)nc4cn[nH]c(=O)c34)cc2)CC1 [Example 208, 3-(4-(4-((2-(azepan-1-yl)-5-oxo-5,6-dihydropyrimido[4,5-d]pyridazin-4-yl)amino)phenyl)piperazin-1-yl) propanoic acid]	21%					
22 nM	< 50 nM	< 10 nM		CC1(O)CCN(CCc2ccc(Nc3nc(N4CCCCCC4)nc4cn[nH]c(=O)c34)cc2)CC1 [Example 210, 2-(azepan-1-yl)-4-((4-(2-(4-hydroxy-4-methylpiperidin-1-yl)ethyl)phenyl)amino) pyrimido[4,5-d]pyridazin-5(6H)-one]	79%					
28 nM	< 50 nM	< 50 nM		N#CCC1CCN(c2nc(Nc3ccc(CCN4CCN(CCO)CC4)cc3)c3c(=O)[nH]ncc3n2)CC1 [Example 212, 2-(1-(4-((4-(2-(4-(2-hydroxyethyl)piperazin-1-yl)ethyl)phenyl)amino)-5-oxo-5,6-dihydropyrimido[4,5-d]pyridazin-2-yl)piperidin-4-yl)acetonitrile]	71%					
33 nM	< 10 nM	< 50 nM		CC(C)(C(=O)O)N1CCN(c2ccc(Nc3nc(N4CCC(CC#N)CC4)nc4cn[nH]c(=O)c34)cc2)CC1 [Example 213, 2-(4-(4-((2-(4-(cyanomethyl)piperidin-1-yl)-5-oxo-5,6-dihydropyrimido[4,5-d]pyridazin-4-yl)amino)phenyl)piperazin-1-yl)-2-methylpropanoic acid]	78%					
12 nM	< 10 nM	< 10 nM		N#CCC(=O)N1CCN(c2ccc(Nc3nc(N4CCCCCC4)nc4cn[nH]c(=O)c34)cc2)CC1 [Example 215, 3-(4-(4-((2-(azepan-1-yl)-5-oxo-5,6-dihydropyrimido[4,5-d]pyridazin-4-yl)amino)phenyl)piperazin-1-yl)-3-oxopropanenitrile]	96%					
21 nM	< 10 nM	< 10 nM		N#CCC1CCN(c2nc(Nc3ccc(N4CCC(CO)CC4)cc3)c3c(=O)[nH]ncc3n2)CC1 [Example 216, 2-(1-(4-((4-(4-(hydroxymethyl)piperidin-1-yl)phenyl)amino)-5-oxo-5,6-dihydropyrimido[4,5-d]pyridazin-2-yl)piperidin-4-yl)acetonitrile]	92%					
				O=C(OCOP(=O)(O)O)C1CC12CCN(c1ccc(Nc3nc(N4CCCCCC4)nc4cn[nH]c(=O)c34)cc1)CC2 (centres unmarked) [Example 219, (phosphonooxy)methyl 6-(4-((2-(azepan-1-yl)-5-oxo-5,6-dihydropyrimido[4,5-d]pyridazin-4-yl)amino)phenyl)-6-azaspiro[2.5]octane-1-carboxylate]		45%	96 nM	< 10 nM	< 10 nM	
367 nM	< 50 nM	< 100 nM		N#CCC1CCN(c2nc(Nc3ccc(N4CCNCC4)nc3)c3c(=O)[nH]ncc3n2)CC1 [Example 231, 2-(1-(5-oxo-4-((6-(piperazin-1-yl)pyridin-3-yl)amino)-5,6-dihydropyrimido[4,5-d]pyridazin-2-yl)piperidin-4-yl)acetonitrile]	0%					
	< 50 nM	< 10 nM	619 nM	N=Cc1nc(N2CCCCCC2)nc(Nc2ccc(N3CCCC(CC(=O)O)C3)cc2)c1C(N)=O (centres unmarked) [Example 232]						0%
174 nM	< 10 nM	< 10 nM		O=C(O)CC1CCCN(c2ccc(Nc3nc(N4CCCCCC4)nc4cn[nH]c(=O)c34)cc2)C1 (centres unmarked) [Example 233, 2-(1-(4-((2-(azepan-1-yl)-5-oxo-5,6-dihydropyrimido[4,5-d]pyridazin-4-yl)amino)phenyl)piperidin-3-yl)acetic acid]	20%					
306 nM	< 10 nM	< 10 nM		O=c1[nH]ncc2nc(N3CCCCCC3)nc(Nc3ccc(N4CCC(Cc5nn[nH]n5)CC4)cc3)c12 [Example 244, 4-((4-(4-((2H-tetrazol-5-yl)methyl)piperidin-1-yl)phenyl)amino)-2-(azepan-1-yl)pyrimido[4,5-d]pyridazin-5(6H)-one]	23%					
19 nM	< 10 nM	< 10 nM		CN1CCN(c2ccc(Nc3nc(N4CCC(CC#N)CC4)nc4cn[nH]c(=O)c34)cc2)CC1 [Example 248, 2-(1-(4-((4-(4-methylpiperazin-1-yl)phenyl)amino)-5-oxo-5,6-dihydropyrimido[4,5-d]pyridazin-2-yl)piperidin-4-yl)acetonitrile]	99%					
1200 nM	< 10 nM	< 50 nM		O=C(O)CN1CCC(Oc2ccc(Nc3nc(N4CCCCCC4)nc4cn[nH]c(=O)c34)cc2)CC1 [Example 254, 2-(4-(4-((2-(azepan-1-yl)-5-oxo-5,6-dihydropyrimido[4,5-d]pyridazin-4-yl)amino)phenoxy)piperidin-1-yl) acetic acid]	24%					

Structure (SMILES)	EC50 (RBL2H3 cells; [3])	IC50 ([1]; read-out: IC50 Syk)	IC50 (JAK2; read-out: IC50 JAK)	EC50 (RBL2H3 cells; Assay Protocol B (96 well format), read-out: Degranulation EC50)	inhibition at 1 µM (RBL2H3 cells; [2])	inhibition at 1 µM (RBL2H3 cells; Rattus norvegicus, RBL-2H3, read-out: Degranulation % inhibition at 1 μM)	EC50 (RBL2H3 cells; Rattus norvegicus, RBL-2H3, read-out: Degranulation EC50 (nM))	IC50 [1]	IC50 (JAK2)	Degranulation % inhibition at 1 μM (RBL2H3 cells; 1 μM, Assay Protocol B (96 well format))
O=c1[nH]ncc2nc(N3CCCCCC3)nc(Nc3ccc(N4CCC(O)CC4)cc3)c12 [Example 186, 2-(azepan-1-yl)-4-((4-(4-hydroxypiperidin-1-yl)phenyl)amino) pyrimido[4,5-d]pyridazin-5(6H)-one]	10 nM	< 10 nM	< 100 nM		93%					
CCN1CCN(c2ccc(Nc3nc(N4CCC(CC#N)CC4)nc4cn[nH]c(=O)c34)cc2)CC1 [Example 187, 2-(1-(4-((4-(4-ethylpiperazin-1-yl)phenyl)amino)-5-oxo-5,6-dihydropyrimido[4,5-d]pyridazin-2-yl)piperidin-4-yl)acetonitrile]	12 nM	< 10 nM	< 50 nM		100%					
N#CCC1CCN(c2nc(Nc3ccc(N4CCNCC4)cc3)c3c(=O)[nH]ncc3n2)CC1 [Example 193, 2-(1-(5-oxo-4-((4-(piperazin-1-yl)phenyl)amino)-5,6-dihydropyrimido[4,5-d]pyridazin-2-yl)piperidin-4-yl)acetonitrile]	17 nM	< 10 nM	< 10 nM		93%					
O=c1[nH]ncc2nc(N3CCCCCC3)nc(Nc3ccc(CCN4CCC(O)CC4)cc3)c12 [Example 201, 2-(azepan-1-yl)-4-((4-(2-(4-hydroxypiperidin-1-yl)ethyl)phenyl)amino)pyrimido[4,5-d]pyridazin-5(6H)-one]	31 nM	< 10 nM	< 10 nM		88%					
O=c1[nH]ncc2nc(N3CCCCCC3)nc(Nc3ccc(CCN4CCN(CCO)CC4)cc3)c12 [Example 211, 2-(azepan-1-yl)-4-((4-(2-(4-(2-hydroxyethyl)piperazin-1-yl)ethyl)phenyl)amino)pyrimido[4,5-d]pyridazin-5(6H)-one]	49 nM	< 50 nM	< 50 nM		53%					
CC(C)(O)C(=O)N1CCN(c2ccc(Nc3nc(N4CCCCCC4)nc4cn[nH]c(=O)c34)cc2)CC1 [Example 214, 2-(azepan-1-yl)-4-((4-(4-(2-hydroxy-2-methylpropanoyl)piperazin-1-yl)phenyl)amino)pyrimido[4,5-d]pyridazin-5(6H)-one]	19 nM	< 10 nM	< 10 nM		78%					
N#CCC1CCN(c2nc(Nc3ccc(OCCN4CCC(CO)CC4)cc3)c3c(=O)[nH]ncc3n2)CC1 [Example 218, 2-(1-(4-((4-(2-(4-(hydroxymethyl)piperidin-1-yl)ethoxy)phenyl)amino)-5-oxo-5,6-dihydropyrimido[4,5-d]pyridazin-2-yl)piperidin-4-yl) acetonitrile]	123 nM	< 50 nM	< 50 nM		33%					
